Measured values as given in article PMC8745710, “Biological Evaluation and Molecular Docking Studies of Novel 1,3,4-Oxadiazole Derivatives of 4,6-Dimethyl-2-sulfanylpyridine-3-carboxamide” (International Journal of Molecular Sciences, 2022).
Where two headings read alike, the source gives them in different places.

Tests used:
[1] = system: LoVo cell line; test: Intracellular ROS level (DCFH-DA), LoVo cells; assay type: cell-based; conditions: Homo sapiens, 4 h, compound 100 μM
Protocol: (§1) Two cell lines were chosen for investigations: V79 (Chinese hamster lung fibroblasts) and LoVo. V79 normal cells are widely used as the cell line tested in the studies of the oxidative stress. These cells are a living system model to explain the mechanism of ROS effects caused by varied compounds [73].
(§2) First, the tested compounds (in concentration of 100 μM) were added to the cell cultures and cells were incubated for 4 h. Then cells were washed and incubated with DCFH-DA (non-fluorescent probe) in dark at 37 °C for 2 h at CO2 [79]. Non-fluorescent, non-polar DCFH-DA (2′7′-dichlorodihydrofluorescein diacetate) at concentration of 25 μM was used as a marker of oxidative stress to determine the intracellular ROS levels. […] In this time, DCFH-DA which penetrated into the cells, was hydrolyzed by esterases to polar, non-fluorescent DCFH (2′7′-dichlorodihydrofluorescein) and then oxidized in the presence of ROS (reactive oxygen species) to fluorescent DCF (2′7′-dichlorofluorescein). DCF was measured using Varioscan LUX microplate reader (Thermo Fisher Scientific, Waltham, MA, USA) at λex = 485 nm and λem = 535 nm.
(§3) E is the culture with the tested compound and E0 is the negative control without the compound. The routine statistical methods: two-way analysis of variance ANOVA as well as Tukey’s post-hoc test were used. It allowed us to determine the statistical significance of results, where p < 0.05 was set as significant. The statistical indicators were estimated using Statistica 13.3 software.

[2] = system: V79 cell line; test: Intracellular ROS level (DCFH-DA), V79 cells; assay type: cell-based, Chinese hamster; conditions: Cricetulus griseus, 4 h, V79, compound 100 μM
Protocol: as §1
as §2, with “nm. Then results were presented as E/E0 where E is test sample value and E0—control value.” for “nm.”
as §3, with “[…] E is” for “E is”

[3] = system: LoVo/Dx (drug resistant subline of LoVo); test: MTT assay, LoVo/Dx; assay type: cell-based; conditions: Homo sapiens, 48 h incubation, read-out: IC50 [µM] ± SD LoVo/Dx
Source text: (§4) The MTT (3-[4,5-dimethylthiazol-2-yl]-2,5-diphenyl tetrazolium bromide) assay was used to determine the cytotoxicity of tested compounds towards different cell lines: normal human dermal fibroblasts (NHDF), kidney epithelial cells (VERO), fibroblasts from Chinese hamster lung (V79) and four human cancer cells: A549 (pulmonary basal cell alveolar adenocarcinoma), MCF-7 (breast adenocarcinoma), LoVo (colon adenocarcinoma), and its drug resistant subline LoVo/Dx. The cell lines used in this study express COX-1 and COX-2. The LoVo line expressed COX-1, the LoVo/Dx subline express both COX-1 and COX-2 [61].
Each cell line was grown in the culture media recommended by supplier. Before the test they were detached with trypsin/EDTA solution, then to neutralize the effect of Trypsin/EDTA solution, FBS containing medium was used. After centrifugation the cells were stained with 0.4% solution of trypan blue, counted and inspected for viability using microscope. […] The number of cells was 2 × 10^3 cells per well. The tested compounds with different concentrations (5, 10, 20, 50, 100 µM) were dissolved in DMSO and then added to the cells (the final DMSO concentration was 0.1%). The cultures were incubated for another 48 h. After that time the cells were collected to be used in tests.
MTT assay was used to find out how tested compounds influence the metabolic activity of investigated cell lines. The cells were incubated with tested compounds. […] The medium was removed again, and formazan crystals were dissolved in isopropanol.

[4] = system: VERO (kidney epithelial cells); test: MTT assay, VERO; assay type: cell-based; conditions: 48 h incubation
Source text: as §4
(§5) Each cell line was grown in the culture media recommended by supplier. Before the test they were detached with trypsin/EDTA solution, then to neutralize the effect of Trypsin/EDTA solution, FBS containing medium was used. After centrifugation the cells were stained with 0.4% solution of trypan blue, counted and inspected for viability using microscope. In the end, cells were inserted into 96-well culture plates and incubated in CO2 incubator (37 °C, 24 h). The number of cells was 2 × 10^3 cells per well. The tested compounds with different concentrations (5, 10, 20, 50, 100 µM) were dissolved in DMSO and then added to the cells (the final DMSO concentration was 0.1%). The cultures were incubated for another 48 h. After that time the cells were collected to be used in tests.
(§6) MTT assay was used to find out how tested compounds influence the metabolic activity of investigated cell lines. The cells were incubated with tested compounds. After removing of supernatant, 1 mg/mL of MTT solution in MEM was added to the plate (to each well) and then the plates were incubated at 37 °C for 2 h. The medium was removed again, and formazan crystals were dissolved in isopropanol. A Varioscan LUX microplate reader (Thermo Fisher Scientific, Waltham, MA, USA) was used to measure absorbance at 570 nm.

[5] = system: V79 (fibroblasts from Chinese hamster lung); test: MTT assay, V79; assay type: cell-based; conditions: Cricetulus griseus, Fibroblast, 48 h incubation, read-out: IC50 [µM] ± SD V79
Source text: as §4, §5, §6

[6] = system: NHDF (normal human dermal fibroblasts); test: MTT assay, NHDF; assay type: cell-based; conditions: 48 h incubation, read-out: IC50 [µM] ± SD NHDF
Source text: as §4, §5, §6

[7] = system: A549 (pulmonary basal cell alveolar adenocarcinoma); test: MTT assay, A549; assay type: cell-based; conditions: Homo sapiens, 48 h incubation, read-out: IC50 [µM] ± SD A549
Source text: as §4, §5, §6

[8] = system: LoVo (colon adenocarcinoma); test: MTT assay, LoVo; assay type: cell-based; conditions: Homo sapiens, 48 h incubation, read-out: IC50 [µM] ± SD LoVo
Source text: as §4, §5, §6

[9] = with H2O2 (100 μM, 30 min), n = 5, read-out: ROS scavenging activity, Mean E/E0 ± SD, with H2O2
[10] = without H2O2, n = 5, read-out: ROS scavenging activity, Mean E/E0 ± SD, without H2O2

SMILES | activity at 100 µM [1, 9] | activity at 100 µM [1, 10] | activity at 100 µM [2, 9] | activity at 100 µM [2, 10] | IC50 [3] | IC50 [µM] ± SD VERO [4] | IC50 [5] | IC50 [6] | IC50 [7] | IC50 [8]
O=C1O[C@H]([C@@H](O)CO)C(O)=C1O [Ascorbic acid, ascorbic acid, reference compound] | 32 ± 9% | 89 ± 11% | 22 ± 12% | 83 ± 13% | – | – | – | – | – | –
Cc1cnc(NC(=O)C2=C(O)c3ccccc3S(=O)(=O)N2C)s1 [Meloxicam, meloxicam, reference compound] | 89 ± 16% | – | 85 ± 18% | 115 ± 19% | 142 ± 9.46 µM | no toxicity | 201 ± 17.8 µM | 196 ± 35.2 µM | – | –
CN1C(C(=O)Nc2ccccn2)=C(O)c2ccccc2S1(=O)=O [Piroxicam, piroxicam, reference compound] | 81 ± 19% | 72 ± 19% | 67 ± 17% | 98 ± 17% | 126 ± 11.2 µM | no toxicity | 213 ± 23.2 µM | 162 ± 22.9 µM | 110 ± 28.2 µM | 122 ± 10.2 µM
Cc1c(C)c2c(c(C)c1O)CCC(C)(C(=O)O)O2 (stereo not shown) [Trolox, trolox, reference compound] | 29 ± 15% | 85 ± 13% | 15 ± 8% | 71 ± 5% | – | – | – | – | – | –
